Values quoted from earlier work, collected in US10954430B2, “Low-toxicity, low-flammability, environmentally-safe, friction reducer fluid for hydraulic fracturing” (priority 2012, dated 2021).
Values after ≈ are worked out from the molar mass of the structure shown. Like-named read-outs stand apart in the source and are kept apart here.

What was measured:
[1] = test system: Pimephales promelas (fathead minnow)
[2] = test system: daphnia magna (water flea)
most sensitive species = conditions: eco-toxicity
animal = conditions: in vivo

For `CC(O)COc1ccccc1` (stereo not drawn) [Dowanol PPH, propylene glycol phenyl ether], the LD50 (rat; in vivo) is listed as > 2,000 mg/kg, the LC50 ([1]; Pimephales promelas) is listed as 280 µg/mL (≈ 1840 µM) and the LC50 ([2]; Daphnia magna) is listed as 370 µg/mL (≈ 2430 µM). The “LC50 for most sensitive species” value (most sensitive species) was greater than 100 µg/mL and the animal toxicity (animal) was “does not have significant animal toxicity”.
In the case of `CC1COC(=O)O1` (stereo not drawn) [Propylene carbonate, propylene carbonate], the “LD50 for oral toxicity” value (rat; oral) is given as greater than 5000 mg/kg.
In the case of `OCCCO` [propanediol], the LD50 (rat; oral) is given as “over 15,000 mg/kg”, the aquatic toxicity profile ([1]; Pimephales promelas (fathead minnow)) is given as > 9,270 mg/L and the aquatic toxicity profile ([2]; daphnia magna (water flea)) is given as greater than 7.417 mg/L.
